Assay results as given in patent US5767236A, “Linear therapeutic peptides” (Biomeasure, Inc., priority 1995, dated 1998).
Residues, ends and D or L forms follow the SMILES beside them.

Columns and labels:
GRP receptor = target: T1, GRP receptor (Rattus norvegicus, UniProt P52500); experiment: Assay on binding to GRP receptor ([125I-Tyr4]bombesin displacement, AR42J cell membranes); conditions: for IC50: rat AR42J cell membranes, [125I-Tyr4]bombesin, 30 min, 4° C., read-out: IC50, affinity binding for the GRP receptors; for increase in the affinity for the GRP receptor compared with litorin or Leu-litorin: ratio of IC50 values versus litorin / Leu-litorin
T1 construct: endogenous in cells; host or cells: rat AR42J pancreatic acinar cells (membrane preparation)
Procedure: Rat AR42J pancreatic acinar cells were cultured in Dulbecco's modified Eagle's medium without antibiotics and supplemented with 10% (vol/vol) fetal calf serum. The incubation atmosphere consisted of 10% C)2 -90% humidified air at 37° C.
Membranes for the bombesin receptor binding assay were obtained by homogenizing AR42J cells (Polytron, setting 6, 15 sec) in ice-cold 50 mM Tris-HCl (Buffer A) and centrifuging twice at 39,000× g (10 min), with an intermediate resuspension in fresh buffer. The final pellets were resuspended in 50 mM Tris-HCl, containing 0.1 mg/ml bacitracin, and 0.1% BSA (Buffer B), and held on ice for the receptor binding assay.
For assay, aliquots (0.4 ml) were incubated with 0.05 ml [^125 I-Tyr^4 ] bombesin (~2200 Ci/mmol, New England Nuclear) and Buffer B, with and without 0.05 ml of unlabeled competing analogs. After a 30 min incubation (4° C.), the bound [^125 I-Tyr^4 ] bombesin was separated from the free by rapid filtration through GF/B filters which had been previously soaked in 0.1% polyethyleneimine. The filters were then washed three times with 5 ml aliquots of ice-cold Buffer A. Specific binding was defined as the total [^125 I-Tyr^4 ] bombesin bound minus that bound in the presence of 1 μM unlabeled bombesin.

[1] = tested on: different human and animal tumors; experiment: Assay on inhibition of tumor growth, overall statement; format: in vivo; conditions: summary of Table 3; inhibitory activity when Percent Test/Control < 80% T/C
Procedure: (§1) Treatment of tumors induced by subcutaneous implantation of in vitro maintained cell cultures was initiated only when well established as progressively growing tumors in the first transplant generation from in vitro culture. "No takes" were culled and animals with tumors of similar size were carefully randomized into control and test groups.
(§2) Analogues were tested against all tumor systems except SCLC's and NSCLC's at a screening dose of 100 μg/injection, s.c., in the flank opposite from the tumor, b.i.d. Lung tumors (SCLC and NSCLC) were tested at 250 μg/injection, s.c., b.i.d. Rat breast tumors were tested at 400 Ag/injection, s.c., b.i.d., an equivalent extrapolation from the mouse dose.
(§3) In vivo transplantation established tumor systems were implanted s.c. as a 1-2 mm^3 mince of tumor tissue. Treatment was initiated within 2 to 3 days of implantation.
(§4) Tumor weights (mgs) from tumor dimensions (mm×mm) were calculated following the formula of a prolate ellipsoid: […]
(§5) L×W^2 /2, where L is the longer of the two measurements.
(§6) Tumor measurements were determined with a vernier caliper three times/week.

M7777 hepatoma = experiment: Subcutaneous tumor assay, M7777 hepatoma; format: in vivo, rat; conditions: 100 μg/injection, s.c., b.i.d.
Procedure: as §1, §2, §3, §4, §5, §6

M5123 hepatoma = experiment: Subcutaneous tumor assay, M5123 hepatoma; format: in vivo, rat; conditions: 100 μg/injection, s.c., b.i.d.
Procedure: as §1, §2, §3, §4, §5, §6

T1 sequence (P52500 whole entry): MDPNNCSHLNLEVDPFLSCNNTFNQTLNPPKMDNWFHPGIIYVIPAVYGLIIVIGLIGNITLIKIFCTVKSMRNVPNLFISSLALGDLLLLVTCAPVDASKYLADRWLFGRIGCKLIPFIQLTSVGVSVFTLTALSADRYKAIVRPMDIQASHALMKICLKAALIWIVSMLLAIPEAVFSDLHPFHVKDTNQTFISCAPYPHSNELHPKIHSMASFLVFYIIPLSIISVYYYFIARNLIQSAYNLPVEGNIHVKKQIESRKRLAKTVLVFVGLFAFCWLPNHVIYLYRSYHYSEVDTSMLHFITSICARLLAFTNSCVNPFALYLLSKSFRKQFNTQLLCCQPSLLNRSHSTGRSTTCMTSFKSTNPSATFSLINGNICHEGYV

Structure (SMILES)	IC50 (GRP receptor) [nM]	inhibition of the growth of different human and animal tumors [1]	increase in the affinity for the GRP receptor compared with litorin or Leu-litorin (GRP receptor)	further results
CSCC[C@H](NC(=O)[C@H](CC(C)C)NC(=O)[C@H](Cc1c[nH]cn1)NC(=O)CNC(=O)[C@@H](NC(=O)[C@H](C)NC(=O)[C@H](Cc1c[nH]c2ccccc12)NC(=O)[C@H](CCC(N)=O)NC(=O)[C@H](N)Cc1ccc(O)cc1)C(C)C)C(N)=O [BIM-26274, H--D-Tyr--Gln--Trp--Ala--Val--Gly--His--Leu--Met--NH2]	0.3	–	–	–
CC(=O)N[C@@H](Cc1c[nH]cn1)C(=O)N[C@@H](Cc1c[nH]c2ccccc12)C(=O)N[C@@H](C)C(=O)N[C@H](C(=O)NCC(=O)N[C@@H](Cc1c[nH]cn1)C(=O)N[C@@H](CC(C)C)C(=O)N[C@@H](CC(C)C)C(N)=O)C(C)C [BIM-26225, Acetyl-His-Trp-Ala-Val-Gly-His-Leu-Leu-NH2] (Ac-HWAVGHLL-NH2)	–	capable of inhibiting the growth	–	Percent Test/Control (tumor weight) (M7777 hepatoma): 52%
CC(C)C[C@H](NC(=O)[C@H](Cc1ccccc1)NC(=O)[C@H](Cc1c[nH]cn1)NC(=O)CNC(=O)[C@@H](NC(=O)[C@H](C)NC(=O)[C@H](Cc1c[nH]c2ccccc12)NC(=O)[C@H](CCC(N)=O)NC(=O)[C@H](N)Cc1ccc(O)cc1)C(C)C)C(N)=O [BIM-26288, H--D-Tyr--Gln--Trp--Ala--Val--Gly--His--Phe--Leu--NH2]	0.7	–	–	–
CSCC[C@H](NC(=O)[C@H](Cc1ccccc1)NC(=O)[C@H](Cc1c[nH]cn1)NC(=O)CNC(=O)[C@@H](NC(=O)[C@H](C)NC(=O)[C@H](Cc1c[nH]c2ccccc12)NC(=O)[C@H](CCC(N)=O)NC(=O)[C@H](N)Cc1ccc(O)cc1)C(C)C)C(N)=O [BIM-26271, H--D-Tyr--Gln--Trp--Ala--Val--Gly--His--Phe--Met--NH2]	0.5	–	5- to 15 times	–
CC(C)C[C@H](NC(=O)[C@H](CC(C)C)NC(=O)[C@H](Cc1c[nH]cn1)NC(=O)CNC(=O)[C@@H](NC(=O)[C@H](C)NC(=O)[C@H](Cc1c[nH]c2ccccc12)NC(=O)[C@H](CCC(N)=O)NC(=O)[C@H](N)Cc1ccc(O)cc1)C(C)C)C(N)=O [BIM-26278, H--D-Tyr--Gln--Trp--Ala--Val--Gly--His--Leu--Leu--NH2]	1.5	–	5- to 15 times	–
CSCC[C@H](NC(=O)[C@H](CC(C)C)NC(=O)[C@H](Cc1c[nH]cn1)NC(=O)CNC(=O)[C@@H](NC(=O)[C@H](C)NC(=O)[C@H](Cc1c[nH]c2ccccc12)NC(=O)[C@H](CCC(N)=O)NC(=O)[C@H](N)Cc1ccccc1)C(C)C)C(N)=O [BIM-26218, H-D-Phe-Gln-Trp-Ala-Val-Gly-His-Leu-Met-NH2]	–	capable of inhibiting the growth	–	Percent Test/Control (tumor weight) (M5123 hepatoma): 70%
